Data reported in patent publication US9827224B2, “Methods and compositions for ameliorating pancreatic cancer” (University of South Alabama, priority 2010, dated 2017).
Blank lines part the entries; values can stand above or below the compound they belong to.

Legend:
Panc1 and MiaPaCa cells [1] = assay: Cell viability assay (Vybrant MTT cell proliferation assay), results stated for both cell lines together; assay type: cell-based, Human; conditions: for effect on CXCL12-induced chemo-resistance (gemcitabine): pre-treatment 1 h (AMD3100 5 μg/mL, LY294002 20 μM, PD98059 25 μM), then gemcitabine + CXCL12
Method: (§1) After 72 h of treatment, cell growth was determined by using Vybrant MIT cell proliferation assay. Growth was calculated as percent (%)=[{(A/B)−1}×100], where A and B are the absorbance of treatment and control cells, respectively. To examine the effect of CXCR4 targeting, cells were pre-incubated with small molecule CXCR4 antagonist, AMD3100 (5 μg/mL), for 1 h. To delineate the role of Akt and ERK pathways, cells were pretreated for 1 h with LY294002 (20 μM) and PD98059 (25 μM), respectively.

Akt = assay: Western blot of Akt activation (total and phospho-forms) in Panc1 and MiaPaCa cells; assay type: cell-based, Human
Method: (§2) Cells were processed for protein extraction and western blotting using standard procedures. Briefly, cells were washed twice with PBS and scraped into NP-40 lysis buffer containing protease and phosphotase inhibitors. Cell lysates were passed through a needle syringe to facilitate the disruption of the cell membranes and were centrifuged at 14,000 rpm for 20 min at 4° C., and supematants were collected. Proteins (10-50 μg) were resolved by electrophoresis on 10% SDS-PAGE, transferred onto polyvinylidene difluoride (PVDF) membrane and subjected to standard immunodetection procedure using specific antibodies: AKT, pAKT ERK1/2, pERK1/2, Bcl-2, Bcl-xL, FAk, pFAk, Survivin, β-catenin and BAD (1:1000), pBAD (1:500), Notch-1 (1:200) and β-actin (1:20000). All secondary antibodies were used at 1:2500 dilutions. Blots were processed with ECL Plus Western Blotting detection kit and the signal detected using an LAS-3000 image analyzer (Fuji Photo Film Co., Tokyo, Japan).

[2] = human volunteers, intra-venous injection; cited from earlier work
ERK = assay: Western blot of ERK activation (total and phospho-forms) in Panc1 and MiaPaCa cells; assay type: cell-based, Human; conditions: for effect on CXCL12-induced activation of ERK pathway: pre-treatment 1 h (AMD3100, LY294002 20 μM, PD98059 25 μM), 15 min post-CXCL12, Panc1 and MiaPaCa
Method: as §2

SHH = assay: CXCL12-induced sonic hedgehog (SHH) expression by Q-RT-PCR and Western blot; assay type: cell-based, Human; conditions: CXCL12, 0-48 hours, Panc1 and MiaPaCa
Method: Panc1 and MiaPaCa cells were treated with CXCL12 and expression of SHH was measured by Q-RT-PCR and Western blot analysis.
Q-RT-PCR: Pancreatic cancer cells (Panc1 and MiaPaCa) were treated with CXCL12 for different time point (0, 4, 8, 24, 48 hours) for Q-RT-PCR analysis. To confirm the induced expression of sonic hegedehog (SHH), reverse transcriptase based-PCR (RT-PCR) analysis was performed, using SHH-specific primers. Briefly, cDNA was synthesized from 5 μg total RNA using SuperScript™ II Reverse Transcriptase (Invitrogen) and oligo(dT) primer. Two micro liter of first strand cDNA (1:10 dilution) was amplified using the SHH specific and GAPDH specific primers control. Amplified products were resolved through a 1.5% agarose gel containing ethidium bromide and analyzed using an Alpha Imager gel documentation system (Alphalnnotech, San Leandro, Calif.).
Immunoblot analyses: NP-40 lysis buffer containing protease and phosphatase inhibitors (Roche Diagnostics. 50 μg protein was resolved by SDS-PAGE (8-12%). The primary antibodies were: anti-sonic hedgehog (SHH, 1:2000, rabbit monoclonal, Millipore. Secondary antibody (Santa Cruz Biotechnology) was horseradish peroxidase (HRP)-conjugated and was used a 1:2000 dilution. Bound immunocomplexes were detected using ECL Plus chemiluminescent detection reagent (GE Healthcare, Piscataway, N.J.).

NF-κB = NF-κB transcriptional activity assay (luciferase reporter); assay type: cell-based, Human; conditions: 24 h
Method: To measure the LEF/TCF and NF-κB transcriptional activity, pancreatic cancer cells (1×10^5) were seeded in 12-well plates. After 24 h incubation, cells were transiently transfected with the luciferase promoter-reporter constructs (TOP flash, FOPflash or pGL4.32[luc2P/NF-kB-RE/Hygro]. TOPflash reporter plasmid contains three copies of the Tcf/Lef sites upstream of a thymidine kinase (TK) promoter and the Firefly luciferase gene, while in FOPflash, Tcf/Lef sites are mutated and therefore it serves as a control for measuring nonspecific activation of the reporter. Cells were also co-transfected with a reporter plasmid, containing Renilla reniformis luciferase gene downstream of the TK promoter, to control for the transfection efficiency. All transfections were performed using FuGene as a transfection reagent according to the manufacturers' recommendations. Cells were treated with CXCL12 (100 ng) 24 h post TOPflash/FOPflash or pGLA.32[luc2P/NF-kB-RE/Hygro] transfection, and after the next 24 h, total protein was isolated in passive lysis buffer. Luciferase activity was measured using the Dual Luciferase Assay System. All experiments were done in triplicate and relative luciferase activity reported as the fold induction after normalization for transfection efficiency.

[3] = system: Bcl-2, Bcl-xL, Notch-1 and survivin; assay: Western blot of survival protein expression in pancreatic cancer cells; assay type: cell-based, Human; conditions: CXCL12-treated pancreatic cancer cells
Method: as §2

BAD = assay: Western blot of BAD phosphorylation in Panc1 and MiaPaCa cells; assay type: cell-based, Human; conditions: CXCL12-treated Panc1 and MiaPaCa
Method: as §2

FAK = assay: Western blot of FAK activation in Panc1 and MiaPaCa cells; assay type: cell-based, Human; conditions: CXCL12 100 ng/mL, 5-30 min
Method: as §2

Panc1 and MiaPaCa cells [4] = assay: DNA fragmentation assay; assay type: cell-based, Human; conditions: gemcitabine 5 and 10 μM + CXCL12 100 ng/mL, 48 h, compared to gemcitabine alone
Method: Cells were washed twice with phosphate buffer saline (PBS) and DNA was extracted using DNAzol reagent. 2 μg of isolated DNA was resolved on 1.0% agarose gel containing ethidium-bromide (EtBr) and observed under a LAS-3000 image analyzer (Fuji Photo Film Co.).

activated caspases = assay: Measurement of apoptosis in situ (CaspACE FITC-VAD-FMK); assay type: cell-based, Human; conditions: gemcitabine 5 μM + CXCL12 100 ng/mL, compared to gemcitabine alone
Method: Apoptosis was detected by staining the cells with CaspACE FITC-VAD-FMK solution in PBS for 2 h at 37° C. CaspACE™ FITC-VAD-FMK In Situ Marker is a fluorescent analog of the pan-caspase inhibitor Z-VAD-FMK (carbobenzoxy-valyl-alanylaspartyl-[O-methyl]-fluoromethylketone), which irreversibly binds to activated caspases and is a surrogate for caspase activity in situ. Following staining with CaspACE FITC-V AD-FMK, cells were fixed with 4% paraformaldehydede at room temperature and washed with PBS. The bound fluorescent marker was detected under a Nikon Eclipse TE2000-U fluorescent microscope (Nikon Instruments Inc, Melville, N.Y.).

MiaPaCa cells = assay: Cell viability assay (MTT), gemcitabine cytotoxicity; assay type: cell-based, Human; conditions: 5.0 μM gemcitabine, 72 h, serum-containing media, compared to untreated cells
Method: as §1

Panc1 cells = assay: as above; assay type: cell-based, Human; conditions: 5.0 μM gemcitabine, 72 h, serum-containing media, compared to untreated cells
Method: as §1

[5] = CXCL12 100 ng/mL, 5-30 min, Panc1 and MiaPaCa

Compound: c1cc(CN2CCCNCCNCCCNCC2)ccc1CN1CCCNCCNCCCNCC1 [AMD3100, Plerixafor, reference compound]
effect on CXCL12-induced chemo-resistance (gemcitabine) (Panc1 and MiaPaCa cells [1]): abolished | effect on CXCL12-induced growth promotion (Panc1 and MiaPaCa cells [1]; pre-treatment 1 h, AMD3100 5 μg/mL, then CXCL12): abolished | effect on CXCL12-induced activation of Akt pathway (Akt; pre-treatment 1 h (AMD3100 5 g/mL, LY294002 20 μM, PD98059 25 μM), 15 min post-CXCL12, Panc1 and MiaPaCa): inhibited | side effects [2]: minimal side effects | effect on CXCL12-induced activation of ERK pathway (ERK): inhibited

Compound: COc1cccc(-c2cc(=O)c3ccccc3o2)c1N [PD98059, reference compound]
effect on CXCL12-induced chemo-resistance (gemcitabine) (Panc1 and MiaPaCa cells [1]): significant negative impact | effect on CXCL12-induced activation of ERK pathway (ERK): specifically inhibited

induction of transcriptional activity of NF-κB responsive promoter (NF-κB; MiaPaCa, CXCL12-treated): 2.26 fold | induction of transcriptional activity of NF-κB responsive promoter (NF-κB; Panc1, CXCL12-treated): 2.98 fold
Compound: CXCL12: Recombinant human CXCL12, a ligand for CXCR4
expression of SHH (SHH): induced expression of SHH | resistance to gemcitabine-cytotoxicity (Panc1 and MiaPaCa cells [1]; CXCL12 100 ng/mL, gemcitabine 0-10 μM, both cell lines, p<0.05): induced significant resistance | induction of growth (Panc1 and MiaPaCa cells [1]; CXCL12 100 ng/ml, absence of serum growth factors, range over MiaPaCa and Panc1): 29-33% | increase of growth (Panc1 and MiaPaCa cells [1]; CXCL12 100 ng/ml, presence of serum growth factors, range over MiaPaCa and Panc1): 11-13% | expression of Bcl-2, Bcl-xL, Notch-1 and survivin proteins [3]: significantly induced | level of phospho-BAD (BAD): increased level of phospho-BAD | activation of FAK (phospho-form) (FAK): significant activation | DNA fragmentation (Panc1 and MiaPaCa cells [4]): reduced DNA fragmentation | activation of Akt (phospho-form) (Akt; [5]): significant activation | activation of ERK (phospho-form) (ERK; [5]): significant activation | activity of caspases (activated caspases): enhanced activity of caspases

Compound: Nc1ccn([C@@H]2O[C@H](CO)[C@@H](O)C2(F)F)c(=O)n1 [gemcitabine]
gemcitabine cytotoxicity (MiaPaCa cells): 50.7% | gemcitabine cytotoxicity (Panc1 cells): 52.3%
